The text below walks through data of ChEMBL document CHEMBL1201862, “PubChem BioAssay data set” (2004).

Test systems include COLO 205; ACHN; A549; OVCAR-5; MCF7; HCT-15; SK-OV-3; HOP-92; RXF 393; EKVX; HOP-62; NCI/ADR-RES; IGROV-1; UACC-257; HCT-116; Hs-578T; MOLT-4; K562; TK-10; M14.
What all share (assay): growth of human tumour cells (NCI), 48 h

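96-well plates; 48 h exposure; 5 concentrations. Endpoints by linear interpolation between flanking doses. Not reached: highest tested concentration assigned. GI50 = concentration required for 50% inhibition of growth.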 Active and inactive are the calls of the source. Rule as the data show it: active = GI50 up to about 1.1 µM and inactive = higher.

With `Cn1c(COC(=O)NC2CCCCC2)c(COC(=O)NC2CCCCC2)c2ccc3ccccc3c21`, the GI50 in the experiment on COLO 205 was 33.2 µM (inactive); in the experiment on ACHN, 17.2 µM (inactive); with A549, 83.8 µM (inactive); in the experiment with OVCAR-5 it was 43.5 µM (inactive); in the experiment on MCF7, 20.5 µM (inactive); in the experiment with HCT-15, 48.1 µM. Also, the GI50 with SK-OV-3 was > 100 µM (inactive); in the experiment on HOP-92, 28.1 µM (inactive); with RXF 393 it was 24 µM (inactive); in the experiment with EKVX it was 47.2 µM (inactive); in the experiment with HOP-62, 35 µM (inactive); in the experiment on NCI/ADR-RES it was 23.1 µM (inactive). Moreover, the GI50 with IGROV-1 is 19.1 µM (inactive); in the experiment on UACC-257 it was 93.1 µM (inactive); in the experiment with HCT-116, 33 µM (inactive); with Hs-578T, 33.2 µM (inactive); with MOLT-4, 9.31 µM (inactive); in the experiment on K562 it was 51.2 µM (inactive). Besides, the GI50 in the experiment with TK-10 was 33.7 µM (inactive); with M14 it was 67.3 µM (inactive).

Consider `N=c1oc2ccc(Cl)cc2cc1C(=O)NCc1ccccc1`, for which the GI50 was > 100 µM (inactive) in the experiment with COLO 205; > 91.8 µM (inactive) with ACHN; > 100 µM (inactive) with A549; > 100 µM (inactive) with OVCAR-5; > 100 µM (inactive) with MCF7; greater than 77.8 µM in the experiment on HCT-15. Also, the GI50 in the experiment with SK-OV-3 is > 100 µM (inactive); in the experiment with HOP-92, 28.9 µM (inactive); with RXF 393 it was 17.8 µM (inactive); in the experiment on EKVX, > 100 µM (inactive); with HOP-62 it was > 87.3 µM (inactive); with NCI/ADR-RES, 27.4 µM (inactive). Also, the GI50 in the experiment on IGROV-1 was > 100 µM (inactive); with UACC-257, > 100 µM (inactive); in the experiment with HCT-116, > 100 µM (inactive); with Hs-578T, 30.5 µM (inactive); in the experiment with MOLT-4, 31.2 µM (inactive); in the experiment with K562, > 42 µM (inactive). Also, the GI50 with TK-10 and in the experiment on M14 was > 100 µM (inactive) each time.

For the compound `C/C(=N/S(=O)(=O)c1ccc(Cl)c(Cl)c1)OCC(C)(C)C`, the GI50 in the experiment with COLO 205 is > 100 µM (inactive); in the experiment with ACHN, > 100 µM (inactive); in the experiment with A549 it was > 100 µM (inactive); in the experiment with OVCAR-5, > 100 µM (inactive); with MCF7, > 100 µM (inactive); in the experiment on HCT-15, greater than 100 µM. Besides, the GI50 with SK-OV-3, in the experiment with HOP-92, with RXF 393, in the experiment on EKVX, with HOP-62 and in the experiment on NCI/ADR-RES was > 100 µM (inactive) throughout. The GI50 in the experiment with IGROV-1, in the experiment on UACC-257, with HCT-116, in the experiment with Hs-578T, in the experiment on MOLT-4 and with K562 was > 100 µM (inactive) in each case. The GI50 in the experiment on TK-10 and with M14 was > 100 µM (inactive) throughout.

With `O=C1/C(=C/c2cccnc2)C(n2cccc2)c2c(Br)sc(Br)c21` (stereo not given), the GI50 in the experiment with COLO 205 is 6.64 µM (inactive); in the experiment on ACHN it was 3.28 µM (inactive); in the experiment on A549, 15.6 µM (inactive); in the experiment on OVCAR-5, 15 µM (inactive); in the experiment on MCF7, 1.8 µM (inactive); in the experiment with HCT-15 it was 2.02 µM. Also, the GI50 in the experiment with SK-OV-3 was 15.8 µM (inactive); in the experiment with HOP-92, 2.01 µM (inactive); in the experiment with RXF 393, 2.4 µM (inactive); in the experiment on EKVX, 2 µM (inactive); in the experiment on HOP-62, 2.73 µM (inactive); in the experiment with NCI/ADR-RES it was 7.43 µM (inactive). Further, the GI50 in the experiment on IGROV-1 is 1.58 µM (inactive); in the experiment with UACC-257, 1.72 µM (inactive); with HCT-116, 2.26 µM (inactive); in the experiment with Hs-578T it was 2.94 µM (inactive); in the experiment on MOLT-4, 2.19 µM (inactive); in the experiment with K562, 2.17 µM (inactive). Further, the GI50 is 1.69 µM (inactive) in the experiment on TK-10 and 2.15 µM (inactive) with M14.

Turning to `CCOCC(=O)N[C@H]1CCc2cc(OC)c(OC)c(OC)c2-c2ccc(SC)c(=O)cc21`, the GI50 in the experiment on COLO 205 was < 0.01 µM (active); in the experiment on ACHN, < 0.0117 µM (active); in the experiment on A549, < 0.01 µM (active); with OVCAR-5 it was 0.398 µM (active); in the experiment with MCF7, < 0.01 µM (active); in the experiment on HCT-15, less than 0.01 µM. Besides, the GI50 was 0.0272 µM (active) in the experiment with SK-OV-3; < 0.01 µM (active) with HOP-92; < 0.01 µM (active) in the experiment with RXF 393; 7.94 µM (inactive) with EKVX; < 0.01 µM (active) in the experiment on HOP-62; 0.0159 µM (active) in the experiment with NCI/ADR-RES. In addition, the GI50 in the experiment on IGROV-1 is < 0.01 µM (active); in the experiment on UACC-257, < 0.0169 µM (active); in the experiment with HCT-116, < 0.01 µM (active); with Hs-578T it was < 0.01 µM (active); in the experiment with MOLT-4 it was < 0.01 µM (active); in the experiment with K562 it was 0.0146 µM (active). Further, the GI50 with TK-10 is 0.406 µM (active); in the experiment with M14 it was < 0.01 µM (active).

Consider `CN(C)CCOc1ccc2c(c1)C/C(=C/c1ncc([N+](=O)[O-])n1C)C2=O`, for which the GI50 in the experiment on COLO 205 was 1.56 µM (inactive); in the experiment with ACHN it was 1.36 µM (inactive); with A549, 1.17 µM (inactive); in the experiment on OVCAR-5, 3.51 µM (inactive); with MCF7, 0.703 µM (active); in the experiment on HCT-15 it was 0.377 µM. The GI50 was 4.8 µM (inactive) in the experiment with SK-OV-3; 1.83 µM (inactive) in the experiment on HOP-92; 1.17 µM (inactive) with RXF 393; 3.61 µM (inactive) in the experiment on EKVX; 2.1 µM (inactive) with HOP-62; 8.36 µM (inactive) with NCI/ADR-RES. The GI50 is 0.233 µM (active) with IGROV-1; 3.79 µM (inactive) with UACC-257; 1.27 µM (inactive) with HCT-116; 12.9 µM (inactive) in the experiment on Hs-578T; 1.21 µM (inactive) with MOLT-4; 1.49 µM (inactive) with K562. For the same compound, the GI50 in the experiment on TK-10 was 3.52 µM (inactive); in the experiment with M14, 2.29 µM (inactive).

Consider `CC(NNC(=O)CC(=O)N(C(=O)c1ccccc1)c1ccc(Cl)cc1)c1cc2ccccc2oc1=O` (stereo not given), for which the GI50 was > 10 µM (inactive) in the experiment with COLO 205; > 10 µM (inactive) in the experiment with ACHN; > 10 µM (inactive) in the experiment on A549; > 10 µM (inactive) with OVCAR-5; > 10 µM (inactive) in the experiment with MCF7; greater than 10 µM with HCT-15. The GI50 in the experiment with SK-OV-3, with HOP-92, in the experiment with RXF 393, in the experiment on EKVX, in the experiment on HOP-62 and with NCI/ADR-RES was > 10 µM (inactive) in each case. Also, the GI50 in the experiment on IGROV-1, in the experiment on UACC-257, in the experiment on HCT-116, in the experiment on Hs-578T, in the experiment on MOLT-4 and in the experiment on K562 was > 10 µM (inactive) each time. For the same compound, the GI50 with TK-10 and in the experiment on M14 was > 10 µM (inactive) each time.
